Data reported in US20100173935A1, “Muscarinic Receptor Agonists that are Effective in the Treatment of Pain, Alzheimer's Disease and Schizophrenia” (AstraZeneca AB, priority 2006, published 2010).
Read-outs that look alike come from different tables or passages of the source.

Experiments:
[1] = target: T1, human M2 receptor (Homo sapiens, UniProt P08172); assay: hM2 receptor GTPγS binding; assay type: biochemical
T1 construct: purchased Perkin-Elmer RBHM2M; host or cells: CHO cell membranes
T1 sequence (P08172 1-466): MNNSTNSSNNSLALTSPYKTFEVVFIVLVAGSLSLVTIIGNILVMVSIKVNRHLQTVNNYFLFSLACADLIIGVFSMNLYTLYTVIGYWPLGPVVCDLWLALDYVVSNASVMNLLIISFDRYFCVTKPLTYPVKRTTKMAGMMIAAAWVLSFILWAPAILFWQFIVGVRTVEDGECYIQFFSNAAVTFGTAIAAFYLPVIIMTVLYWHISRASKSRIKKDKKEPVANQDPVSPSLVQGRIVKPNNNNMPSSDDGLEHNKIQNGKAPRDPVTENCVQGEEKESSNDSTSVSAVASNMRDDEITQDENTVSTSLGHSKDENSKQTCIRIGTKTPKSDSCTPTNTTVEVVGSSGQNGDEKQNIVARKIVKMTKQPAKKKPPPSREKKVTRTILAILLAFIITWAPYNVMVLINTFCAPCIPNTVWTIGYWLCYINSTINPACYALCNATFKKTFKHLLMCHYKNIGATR
Description: Membranes produced from Chinese hamster ovary cells (CHO) expressing the cloned human M2 receptor (human Muscarinic receptor subtype 2, gene bank access NM_000739), were obtained from Perkin-Elmer (RBHM2M). The membranes were thawed at 37° C., passed 3 times through a 23-gauge blunt-end needle, diluted in the GTPγS binding buffer (50 mM Hepes, 20 mM NaOH, 100 mM NaCl, 1 mM EDTA, 5 mM MgCl2, pH 7.4, […] DTT). The EC50, IC50 and Emax of the compounds of the invention were evaluated from 10-point dose-response curves (three fold concentration range) done in 60 μl in 384-well non-specific binding surface plate (Corning). Ten microliters from the dose-response curves plate (5× concentration) were transferred to another 384 well plate containing the following: 10 μg of hM2 membranes, 500 μg of Flashblue beads (Perkin-Elmer) and GDP in a 25 μl volume. An additional 15 μl containing 3.3× (55000 dpm) of GTRγ35S (0.4 nM final) were added to the wells resulting in a total well volume of 50 μl. Basal and maximal stimulated [^35S]GTPγS binding were determined in absence and presence of 30 μM of acetylcholine agonist. The membranes/beads mix were pre-incubated for 15 minutes at room temperature with 25 μM GDP prior to distribution in plates (12.5 μM final). The reversal of acetylcholine-induced stimulation (2 μM final) of [^35S]GTPγS binding was used to assay the antagonist properties (IC50) of the compounds. The plates were incubated for 60 minutes at room temperature with shaking, then centrifuged at 2000 rpm for 5 minutes. The radioactivity (cpm) were counted in a Trilux (Perkin-Elmer).
Values of EC50, IC50 and Emax were obtained using sigmoidal fits of a non-linear curve-fitting program (XLfit version 5.0.6 from ID Business Solutions Limited, Guildford, UK) of percent stimulated [^35S]GTPγS binding vs. log(molar ligand).
All EC50 and IC50 values are reported as arithmetic means t standard error of mean of ‘n’ independent experiments. […] The IC50 was the concentration of the compound of the invention at which 50% inhibition of acetylcholine [^35S]GTPγS binding stimulation has been observed.

[2] = target: T2, hM3 (human Muscarinic receptor subtype 3) (Homo sapiens, UniProt P20309); assay: Human M3 calcium mobilization FLIPR assay; assay type: cell-based; settings: CHO cells expressing hM3, Ca2+ release
T2 construct: expressed in transfected cells; host or cells: CHO cells (ATCC)
T2 sequence (P20309 whole entry): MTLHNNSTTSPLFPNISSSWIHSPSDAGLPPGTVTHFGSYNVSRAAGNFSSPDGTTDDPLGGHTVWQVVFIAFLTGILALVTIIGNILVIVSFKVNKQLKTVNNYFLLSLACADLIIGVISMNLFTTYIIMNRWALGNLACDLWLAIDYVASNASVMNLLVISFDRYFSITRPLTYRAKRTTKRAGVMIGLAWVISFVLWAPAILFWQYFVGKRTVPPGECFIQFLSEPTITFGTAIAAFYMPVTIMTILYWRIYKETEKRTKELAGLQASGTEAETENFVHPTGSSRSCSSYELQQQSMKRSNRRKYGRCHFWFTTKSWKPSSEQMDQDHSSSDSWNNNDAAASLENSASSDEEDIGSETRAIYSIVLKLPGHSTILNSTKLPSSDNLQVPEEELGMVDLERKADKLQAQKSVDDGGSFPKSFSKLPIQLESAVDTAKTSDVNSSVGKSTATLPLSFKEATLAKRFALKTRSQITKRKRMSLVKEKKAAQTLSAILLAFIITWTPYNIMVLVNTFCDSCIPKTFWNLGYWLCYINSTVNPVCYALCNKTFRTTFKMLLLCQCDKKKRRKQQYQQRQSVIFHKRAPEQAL
Description: The compound activity in the present invention (EC50 or IC50) was measured using a 384 plate-based imaging assay that monitors drug induced intracellular Ca^2+ release in whole cells. Activation of hM1 (human Muscarinic receptor subtype 1, gene bank access NM_000738), rM1 (rat Muscarinic receptor subtype 1, gene bank access NM_080773), hM3 (human Muscarinic receptor subtype 3, gene bank access NM_000740NM_000740) and hM5 (human Muscarinic receptor subtype 5, gene bank access NM_0121258), receptors expressed in CHO cells (chinese hamster ovary cells, ATCC) was quantified in a Molecular Devices FLIPR II™ instrument as an increase in fluorescent signal. Inhibition of hM3 and hM5 by compounds was determined by the decrease in fluorescent signal in response to 20 nM carbachol activation.
CHO cells were plated in 384-black polylysine coated plate (Costar) at 8000 cells/well/50 μl for 24 hours or 4000 cells/well for 48 hours in a humidified incubator (5% CO2 and 37° C.) in DMEM/F12 medium without selection agent. Prior to the experiment the cell culture medium was removed from the plates by inversion. A loading solution of 30 μl of Hank's balanced salt solution, 10 mM Hepes and 2.5 mM Probenicid at Ph 7.4 (Cat no. 311-520-VL, Wisent) with 2 μM calcium indicator dye (FLUO-3AM, Molecular Probes F14202) was added to each well. Plates were incubated at 37° C. for 60 minutes prior to start the experiment. The incubation was terminated by washing the cells four times in assay buffer, leaving a residual 25 μl buffer per well. Cell plates were then transferred to the FLIPR, ready for compound additions.
The day of experiment, carbachol and compounds were diluted in three-fold concentration range (10 points serial dilution) for addition by FLIPR instrument. For all calcium assays, a baseline reading was taken for 30 seconds followed by the addition of 12.5 μl (25 μl for hM1 and rM1) of compounds, resulting in a total well volume of 37.5 μl (50 μl for hM1 and rM1). Data were collected every 1.6 seconds for 300 seconds. For hM3 and hM5 an additional 12.5 μl of carbachol (20 nM final) was added at 300 seconds. After this addition of carbachol (producing a final volume of 50 μl), the FLIPR continued to collect data every 2 seconds for 240 seconds. The fluorescence emission was read using filter 1 (emission 520-545 nm) by the FLIPR on board CCD camera.
Calcium mobilization output data were calculated as the maximal relative fluorescence unit (RFU) minus the minal value for both compound and agonist reading frame (except for hM1 and rM1 using only the maximal RFU). Data were analyzed using sigmoidal fits of a non-linear curve-fitting program (XLfit version 5.0.6 from ID Business Solutions Limited, Guildford, UK). All EC50 and IC50 values are reported as arithmetic means±standard error of mean of ‘n’ independent experiments.

[3] = CHO membranes expressing cloned human M2, [35S]GTPγS binding, read-out: hM2 EC50

Compound | EC50 [1] | EC50 [2] | EC50 [1, 3]
CCOC(=O)N1CC[C@H](N2CCC(n3c(=O)[nH]c4ccc(F)cc43)CC2)C1 (single isomer, unassigned) [Example 35] | > 30 µM | 5.96 µM | –
CCOC(=O)N1CC[C@@H](N2CCC(n3c(=O)[nH]c4ccc(F)cc43)CC2)C1 (single isomer, unassigned) [Example 36] | 4.65 µM | > 40 µM | –
CCOC(=O)N1CCC(N2CCC(C3C(=O)Nc4ccccc43)CC2)C1 (centres unmarked) [Example 13, Ethyl 3-[4-(2-oxo-2,3-dihydro-1H-indol-3-yl)piperidin-1-yl]pyrrolidine-1-carboxylate] | – | > 40 µM | 3.54 µM
CCOC(=O)N1CC[C@@H](N2CCC(n3c(=O)[nH]c4ccccc43)CC2)C1 [Example 16, Ethyl (3R)-3-[4-(2-oxo-2,3-dihydro-1H-benzimidazol-1-yl)piperidin-1-yl]pyrrolidine-1-carboxylate] | – | > 40 µM | 3.29 µM
O=C(C1CCCC1)N1CC[C@H](N2CCC(n3c(=O)[nH]c4ccccc43)CC2)C1 [Example 19, 1-{1-[(3S)-1-(cyclopentylcarbonyl)pyrrolidin-3-yl]piperidin-4-yl}-1,3-dihydro-2H-benzimidazol-2-one] | 0.245 µM | 2.08 µM | –
O=C1CCCN1CCCC(=O)N1CC[C@H](N2CCC(n3c(=O)[nH]c4ccccc43)CC2)C1 [Example 22, 1-(1-{(3S)-1-[4-(2-oxopyrrolidin-1-yl)butanoyl]pyrrolidin-3-yl}piperidin-4-yl)-1,3-dihydro-2H-benzimidazol-2-one] | > 30 µM | – | –
Cn1c(=O)n(C2CCN([C@H]3CCN(C(=O)CCN4CCCC4=O)C3)CC2)c2ccccc21 [Example 24, 1-methyl-3-(1-{(3S)-1-[3-(2-oxopyrrolidin-1-yl)propanoyl]pyrrolidin-3-yl}piperidin-4-yl)-1,3-dihydro-2H-benzimidazol-2-one] | – | > 40 µM | > 30 µM
CCOC(=O)N1CC[C@H](N2CCC(N3C(=O)Cc4ccccc43)CC2)C1 [Example 26, Ethyl (3S)-3-[4-(2-oxo-2,3-dihydro-1H-indol-1-yl)piperidin-1-yl]pyrrolidine-1-carboxylate] | 7.45 µM | > 40 µM | –
O=C1CCCN1CCC(=O)N1CC[C@H](N2CCC(N3C(=O)Cc4ccccc43)CC2)C1 [Example 29, 1-(1-{(3S)-1-[3-(2-oxopyrrolidin-1-yl)propanoyl]pyrrolidin-3-yl}piperidin-4-yl)-1,3-dihydro-2H-indol-2-one] | 1.75 µM | 2.5 µM | –
CCOC(=O)N1CC[C@H](N2CCC(n3c(=O)[nH]c4ccc(C#N)cc43)CC2)C1 [Example 41, Ethyl (3S)-3-[4-(6-cyano-2-oxo-2,3-dihydro-1H-benzimidazol-1-yl)piperidin-1-yl]pyrrolidine-1-carboxylate] | > 3.33 µM | 2.68 µM | –
CCOC(=O)N1CC[C@H](N2CCC(n3c(=O)[nH]c4ccc(Cl)cc43)CC2)C1 [Example 42, Ethyl (3S)-3-[4-(6-chloro-2-oxo-2,3-dihydro-1H-benzimidazol-1-yl)piperidin-1-yl]pyrrolidine-1-carboxylate] | 1.2 µM | – | –
